The values below come from US10543160B2, “Cosmetic composition including water soluble scrub particles containing polypeptide and/or cell culture” (PAEAN AESTHETICS INC., priority 2015, dated 2020).

This test deals with 3T3 fibroblasts. Description: Measurement of EGF activities using 3T3 fibroblasts, corrected to NIBSC EGF standard product. In kind it is cell-based. Particulars: recombinant EGF of purity 90% or more. The method, then:
According to an embodiment of the present invention, the EGF may be an EGF which is prepared from a recombinant E. coli or a plant and is purified to a purity of 90% or more.

Consider “epidermal growth factor [EGF, peptide of 6,200 Da with 53 amino acid residues, prepared from recombinant E. coli or a plant, purity 90% or more]”, for which the “EGF activity per mg” value is “one million”.
